Laboratory results as given in ChEMBL document CHEMBL3120136 (J Med Chem, 2014).

Assays:
[1] = Inhibition of Hepatitis C virus full-length NS3/4A protease assessed as quenched-fluorogenic RET-S1 substrate cleavage incubated for 10 mins prior to substrate addition by FRET analysis; design: species or system Hepacivirus hominis
[2] = test system: Hepatitis C virus; experiment: Antiviral activity against Hepatitis C virus infected in human HuH7 cells assessed as inhibition of HCV subgenomic replicon replication after 72 hrs by ELISA; type: functional, organism-based, Hepacivirus hominis, Huh-7; conditions: Hepatitis C virus, Huh-7, 72 h; read-out: EC50

Structure (SMILES)	IC50 [1] [nM]	EC50 [2] [nM]
CC(C)(C)OC(=O)N[C@H]1CCCCC/C=C\[C@@H]2C[C@@]2(C(=O)NS(=O)(=O)C2CC2)NC(=O)[C@@H]2C[C@@H](OC(=O)N3Cc4cc(Cl)c(Cl)cc4C3)CN2C1=O	1	24
CC(C)(C)OC(=O)N[C@H]1CCCCC/C=C\[C@@H]2C[C@@]2(C(=O)NS(=O)(=O)c2cccs2)NC(=O)[C@@H]2C[C@@H](OC(=O)N3Cc4ccccc4C3)CN2C1=O	2.5	27
CC(C)(C)OC(=O)N[C@H]1CCCCC/C=C\[C@@H]2C[C@@]2(C(=O)NS(=O)(=O)N2CCCC2)NC(=O)[C@@H]2C[C@@H](OC(=O)N3Cc4ccccc4C3)CN2C1=O	2.6	11.8
CC(C)(C)NC(=O)N[C@H]1CCCCC/C=C\[C@@H]2C[C@@]2(C(=O)NS(=O)(=O)C2CC2)NC(=O)[C@@H]2C[C@@H](OC(=O)N3Cc4ccccc4C3)CN2C1=O	2.4	38
CC(C)(C)OC(=O)N[C@H]1CCCCC/C=C\[C@@H]2C[C@@]2(C(=O)NS(=O)(=O)c2ccc(Cl)s2)NC(=O)[C@@H]2C[C@@H](OC(=O)N3Cc4ccccc4C3)CN2C1=O	4.6	111
CC(C)S(=O)(=O)NC(=O)[C@@]12C[C@H]1/C=C\CCCCC[C@H](NC(=O)OC(C)(C)C)C(=O)N1C[C@H](OC(=O)N3Cc4ccccc4C3)C[C@H]1C(=O)N2	4.8	21
CC(C)(C)OC(=O)N[C@H]1CCCCC/C=C\[C@@H]2C[C@@]2(C(=O)NS(=O)(=O)C2CC2)NC(=O)[C@@H]2C[C@@H](OC(=O)N3Cc4ccc(Cl)cc4C3)CN2C1=O	2	9.2
CC(C)(C)OC(=O)N[C@H]1CCCCC/C=C\[C@@H]2C[C@@]2(C(=O)NS(=O)(=O)Nc2ccc(Cl)cc2)NC(=O)[C@@H]2C[C@@H](OC(=O)N3Cc4ccccc4C3)CN2C1=O	7.9	97
CCCC1(S(=O)(=O)NC(=O)[C@@]23C[C@H]2/C=C\CCCCC[C@H](NC(=O)OC(C)(C)C)C(=O)N2C[C@H](OC(=O)N4Cc5ccccc5C4)C[C@H]2C(=O)N3)CC1	3	5
CC(C)(C)OC(=O)N[C@H]1CCCCC/C=C\[C@@H]2C[C@@]2(C(=O)NS(=O)(=O)C2CC2)NC(=O)[C@@H]2C[C@@H](NC(=O)N3Cc4ccccc4C3)CN2C1=O	2.3	47
CN1CC/C=C\[C@@H]2C[C@@]2(C(=O)NS(=O)(=O)C2CC2)NC(=O)[C@@H]2C[C@@H](OC(=O)N3Cc4cccc(F)c4C3)CN2C(=O)[C@@H](NC(=O)OC(C)(C)C)CC1	7	837
CC(C)(C)OC(=O)N[C@H]1CCCCC/C=C\[C@@H]2C[C@@]2(C(=O)NS(=O)(=O)C2CC2)NC(=O)[C@@H]2C[C@@H](OC(=O)N3CCc4cc(F)ccc4C3)CN2C1=O	2	11
CC(C)(C)OC(=O)N[C@H]1CCCCC/C=C\[C@@H]2C[C@@]2(C(=O)NS(=O)(=O)C2CC2)NC(=O)[C@@H]2C[C@@H](OC(=O)N3CCc4cccc(C(F)(F)F)c4C3)CN2C1=O	0.8	13
CC(C)(C)OC(=O)N[C@H]1CCCCC/C=C\[C@@H]2C[C@@]2(C(=O)NS(=O)(=O)Nc2ccccc2)NC(=O)[C@@H]2C[C@@H](OC(=O)N3Cc4ccccc4C3)CN2C1=O	2.2	30
CC(C)(C)OC(=O)N[C@H]1CCCCC/C=C\[C@@H]2C[C@@]2(C(=O)O)NC(=O)[C@@H]2C[C@@H](OC(=O)N3Cc4cccc(F)c4C3)CN2C1=O	10	1270
CC(C)(C)OC(=O)N[C@H]1CCCCC/C=C\[C@@H]2C[C@@]2(C(=O)NS(=O)(=O)C2CC2)NC(=O)[C@@H]2C[C@@H](NC(=O)c3nc4ccccc4[nH]3)CN2C1=O	6.4	614
CC(C)(C)OC(=O)N[C@H]1CCCCC/C=C\[C@@H]2C[C@@]2(C(=O)NS(=O)(=O)C2CC2)NC(=O)[C@@H]2C[C@@H](NC(=O)c3nc4cc(Cl)ccc4s3)CN2C1=O	5.2	126
CC(C)(C)OC(=O)N[C@H]1CCCCC/C=C\[C@@H]2C[C@@]2(C(=O)NS(=O)(=O)C2(Cc3ccccc3)CC2)NC(=O)[C@@H]2C[C@@H](OC(=O)N3Cc4ccccc4C3)CN2C1=O	1.6	25
CC(C)(C)OC(=O)N[C@H]1CCCOCCC[C@@H]2C[C@@]2(C(=O)NS(=O)(=O)C2CC2)NC(=O)[C@@H]2C[C@@H](OC(=O)N3Cc4cccc(F)c4C3)CN2C1=O	1	254

Structure (SMILES)	IC50 [1] [nM]	EC50 [2] [nM]
CC(C)(C)OC(=O)N[C@H]1CCCCC/C=C\[C@@H]2C[C@@]2(C(=O)O)NC(=O)[C@@H]2C[C@@H](OC(=O)N3Cc4cccc(Cl)c4C3)CN2C1=O	13	516
O=C(N[C@H]1CCCCC/C=C\[C@@H]2C[C@@]2(C(=O)NS(=O)(=O)C2CC2)NC(=O)[C@@H]2C[C@@H](OC(=O)N3Cc4ccccc4C3)CN2C1=O)O[C@@H]1CCOC1	2.8	107
CC(C)(C)OC(=O)N[C@H]1CCCCC/C=C\[C@@H]2C[C@@]2(C(=O)O)NC(=O)[C@@H]2C[C@@H](OC(=O)N3Cc4cc(Cl)c(Cl)cc4C3)CN2C1=O	483	25000
CC(C)(C)OC(=O)N[C@H]1CCCCC/C=C\[C@@H]2C[C@@]2(C(=O)NS(=O)(=O)c2ccc(C#N)cc2)NC(=O)[C@@H]2C[C@@H](OC(=O)N3Cc4ccccc4C3)CN2C1=O	3	125
CC(C)(C)OC(=O)N[C@H]1CCCCC/C=C\[C@@H]2C[C@@]2(C(=O)O)NC(=O)[C@@H]2C[C@@H](OC(=O)N3Cc4ccccc4C3)CN2C1=O	11	1550
CC(C)(C)OC(=O)N[C@H]1CCCCC/C=C\[C@@H]2C[C@@]2(C(=O)NS(=O)(=O)C2CC2)NC(=O)[C@@H]2C[C@@H](OC(=O)N3Cc4ccccc4C(C)(C)C3)CN2C1=O	0.8	7.7
O=C(N[C@H]1CCCCC/C=C\[C@@H]2C[C@@]2(C(=O)NS(=O)(=O)C2CC2)NC(=O)[C@@H]2C[C@@H](OC(=O)N3Cc4ccccc4C3)CN2C1=O)OC1CCOCC1	2.2	97
CC(C)(C)OC(=O)N[C@H]1CCCCC/C=C\[C@@H]2C[C@@]2(C(=O)NS(=O)(=O)C2CC2)NC(=O)[C@@H]2C[C@@H](OC(=O)N3Cc4c(Cl)ccc(Cl)c4C3)CN2C1=O	1.7	7.3
CC(C)N(C(C)C)S(=O)(=O)NC(=O)[C@@]12C[C@H]1/C=C\CCCCC[C@H](NC(=O)OC(C)(C)C)C(=O)N1C[C@H](OC(=O)N3Cc4ccccc4C3)C[C@H]1C(=O)N2	70	139
CC(C)(C)OC(=O)N[C@H]1CCOCCCC[C@@H]2C[C@@]2(C(=O)NS(=O)(=O)C2CC2)NC(=O)[C@@H]2C[C@@H](OC(=O)N3Cc4cccc(F)c4C3)CN2C1=O	0.7	19
CC(C)(C)OC(=O)N[C@H]1CCCCC/C=C\[C@@H]2C[C@@]2(C(=O)NS(=O)(=O)C2CC2)NC(=O)[C@@H]2C[C@@H](Nc3nc4ccccc4o3)CN2C1=O	21	730
CC(C)(C)OC(=O)N[C@H]1CCCCC/C=C\[C@@H]2C[C@@]2(C(=O)O)NC(=O)[C@@H]2C[C@@H](OC(=O)N3Cc4c(Cl)ccc(Cl)c4C3)CN2C1=O	21	1480
CC(C)(C)OC(=O)N[C@H]1CCCCC/C=C\[C@@H]2C[C@@]2(C(=O)NS(=O)(=O)C2CC2)NC(=O)[C@@H]2C[C@@H](NS(=O)(=O)c3cccc4ccccc34)CN2C1=O	470	> 10000
CC(C)(C)OC(=O)N[C@H]1CCN(CC(F)(F)F)CC/C=C\[C@@H]2C[C@@]2(C(=O)NS(=O)(=O)C2CC2)NC(=O)[C@@H]2C[C@@H](OC(=O)N3Cc4cccc(F)c4C3)CN2C1=O	1.8	24
O=C(N[C@H]1CCCCC/C=C\[C@@H]2C[C@@]2(C(=O)NS(=O)(=O)C2CC2)NC(=O)[C@@H]2C[C@@H](OC(=O)N3Cc4ccccc4C3)CN2C1=O)O[C@H]1CCOC1	2.2	217
CO[C@@H]1C[C@H]2C(=O)N[C@]3(C(=O)NS(=O)(=O)C4CC4)C[C@H]3/C=C\CCCCC[C@H](NC(=O)OC(C)(C)C)C(=O)N2C1	220	6300
CC(C)(C)OC(=O)N[C@H]1CCCCC/C=C\[C@@H]2C[C@@]2(C(=O)NS(=O)(=O)c2ccccc2)NC(=O)[C@@H]2C[C@@H](OC(=O)N3Cc4ccccc4C3)CN2C1=O	3.5	11
O=C(CCC(F)(F)F)N[C@H]1CCCCC/C=C\[C@@H]2C[C@@]2(C(=O)NS(=O)(=O)C2CC2)NC(=O)[C@@H]2C[C@@H](OC(=O)N3Cc4ccccc4C3)CN2C1=O	0.6	48
CC(C)(C)OC(=O)N[C@H]1CCCCC/C=C\[C@@H]2C[C@@]2(C(=O)NS(=O)(=O)C2CC2)NC(=O)[C@@H]2C[C@@H](OC(=O)N3CCc4cccc(Cl)c4C3)CN2C1=O	2.1	43
